According to publication PMC11418212, “Characterization of four structurally diverse inhibitors of SUR2-containing KATP channels” (Channels, 2024):

What was measured:
Test in all cases: Kir family selectivity thallium flux assay
Format in all cases: cell-based
Kir3.1/3.4 = molecular target: T1, Kir3.1/3.4 (Homo sapiens, UniProt P48544+P48549); details: for IC50: thallium flux
T1 construct: expressed in transfected cells
T1 sequence (P48549 1-501): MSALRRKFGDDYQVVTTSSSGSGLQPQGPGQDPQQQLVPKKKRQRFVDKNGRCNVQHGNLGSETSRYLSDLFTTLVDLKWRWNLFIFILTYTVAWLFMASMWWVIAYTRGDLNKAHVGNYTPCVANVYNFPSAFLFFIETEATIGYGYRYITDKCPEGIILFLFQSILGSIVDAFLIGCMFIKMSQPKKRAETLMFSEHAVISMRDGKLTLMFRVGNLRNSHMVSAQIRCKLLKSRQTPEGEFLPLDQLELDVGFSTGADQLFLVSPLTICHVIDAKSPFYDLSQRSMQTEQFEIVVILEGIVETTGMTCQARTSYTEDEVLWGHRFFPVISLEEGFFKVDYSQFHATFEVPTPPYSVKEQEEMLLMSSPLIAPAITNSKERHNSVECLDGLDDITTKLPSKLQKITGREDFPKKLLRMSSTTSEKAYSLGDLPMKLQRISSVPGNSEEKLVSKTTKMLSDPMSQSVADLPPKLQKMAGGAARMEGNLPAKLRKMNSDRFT
T1 sequence (P48544 1-419): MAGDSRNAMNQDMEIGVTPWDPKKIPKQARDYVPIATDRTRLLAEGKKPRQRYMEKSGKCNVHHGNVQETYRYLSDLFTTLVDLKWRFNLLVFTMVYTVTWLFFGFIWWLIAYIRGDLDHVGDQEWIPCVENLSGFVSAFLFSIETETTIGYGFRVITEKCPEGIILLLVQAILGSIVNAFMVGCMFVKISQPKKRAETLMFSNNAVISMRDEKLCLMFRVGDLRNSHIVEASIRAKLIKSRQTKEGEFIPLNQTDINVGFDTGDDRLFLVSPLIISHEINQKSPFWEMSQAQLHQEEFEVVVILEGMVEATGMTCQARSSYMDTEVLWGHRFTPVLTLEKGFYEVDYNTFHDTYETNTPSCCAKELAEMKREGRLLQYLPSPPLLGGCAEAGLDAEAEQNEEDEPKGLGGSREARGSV
Experimental: (§1) Thallium flux assays were conducted using the established methods. Stably transfected T-REx-HEK-293 cells expressing Kir6.2/SUR1 or Kir6.1/SUR2B were cultured overnight in polyamine-coated plates (black-walled, clear-bottomed; BD, Bedford, MA) at a density of 20,000 cells in 20 µl per well of cell culture media. The expression of Kir6.2/SUR1 or Kir6.1/SUR2B channels was induced by treating cells with 1 µg/ml tetracycline overnight. The following day, cells were rinsed with an assay buffer (Hanks’ Balanced Salt Solution supplied with 20 mM HEPES), loaded with the thallium-sensor dye Brilliant Thallos-AM AM (Ion Bioscience, San Marcos, TX) for 1 h, and then washed again with assay buffer to remove unincorporated dye. The cell plate was subsequently placed in a Panoptic Kinetic Imaging Plate Reader (Wavefront Bioscience, Franklin, TN) and imaged at a frequency of 1 Hz using 482/35 nm (excitation) and 536/40 nm (emission) filter sets. Kir6.1/SUR2B channels were activated with 10 µM pinacidil, whereas Kir6.1/SUR1 was activated with 30 µM VU0071063 [34]. To activate KATP channels independent of activators with ATP-depletion method, cells were treated with a cocktail of metabolic inhibitors (2.5 mM sodium cyanide and 20 mM 2-deoxy glucose) for 25 min before imagine. Control and test compounds diluted freshly from DMSO stocks into assay buffer were added to wells for four minutes before adding 0.5 mM chloride-free thallium stimulus buffer (Ion Bioscience) to initiate thallium flux through the expressed KATP channels. Thallium flux was recorded from all 384-wells for 2 min before terminating the experiment. […] Selectivity assays against other Kir channels were performed as described previously.
(§2) To begin elucidating the binding site location of VU0212387, VU0543336, VU0605768, and VU0544086, we evaluated the activity of the inhibitors against KATP channels composed of different Kir and SUR subunit combinations expressed in HEK293 cells. Specifically, the compounds were tested against Kir6.1/SUR1, Kir6.2/SUR1, Kir6.1/SUR2A, Kir6.2/SUR2A, Kir6.1/SUR2B, and Kir6.2/SUR2B at a dose of 3 µM. […] We expanded the selectivity analysis to include 10 other members of the Kir channel family.

Kir2.3 = molecular target: T2, Kir2.3 (Homo sapiens, UniProt P48050)
T2 construct: expressed in transfected cells
T2 sequence (P48050 1-445): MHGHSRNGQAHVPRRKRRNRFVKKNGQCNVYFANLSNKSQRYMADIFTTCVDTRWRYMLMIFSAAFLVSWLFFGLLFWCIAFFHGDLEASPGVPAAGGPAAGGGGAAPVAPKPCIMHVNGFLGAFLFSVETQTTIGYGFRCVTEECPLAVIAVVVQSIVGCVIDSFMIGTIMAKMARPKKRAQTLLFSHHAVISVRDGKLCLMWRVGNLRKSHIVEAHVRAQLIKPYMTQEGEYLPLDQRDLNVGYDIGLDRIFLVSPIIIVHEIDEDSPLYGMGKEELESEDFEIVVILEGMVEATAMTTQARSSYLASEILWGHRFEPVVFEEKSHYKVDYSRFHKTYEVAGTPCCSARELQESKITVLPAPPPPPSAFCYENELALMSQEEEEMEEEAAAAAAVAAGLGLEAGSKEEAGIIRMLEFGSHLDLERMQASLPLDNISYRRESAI
Experimental: as §1, §2

Kir3.1/3.2 = molecular target: T3, Kir3.1/3.2 (Homo sapiens, UniProt P48051+P48549)
T3 construct: expressed in transfected cells
T3 sequence (P48549 1-501): T1 sequence (P48549 1-501)
T3 sequence (P48051 1-423): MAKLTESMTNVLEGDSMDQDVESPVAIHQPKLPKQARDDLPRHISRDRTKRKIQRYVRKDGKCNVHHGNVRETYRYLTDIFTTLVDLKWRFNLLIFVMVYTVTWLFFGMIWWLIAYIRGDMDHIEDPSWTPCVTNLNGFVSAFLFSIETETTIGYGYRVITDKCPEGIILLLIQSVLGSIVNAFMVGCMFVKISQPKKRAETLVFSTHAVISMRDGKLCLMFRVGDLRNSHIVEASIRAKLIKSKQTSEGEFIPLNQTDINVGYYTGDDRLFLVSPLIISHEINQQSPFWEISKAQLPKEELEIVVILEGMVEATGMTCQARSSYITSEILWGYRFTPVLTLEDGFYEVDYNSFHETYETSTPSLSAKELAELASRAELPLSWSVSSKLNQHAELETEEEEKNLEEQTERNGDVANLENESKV
Experimental: as §1, §2

| SMILES | IC50 (Kir3.1/3.4) [µM] | IC50 (Kir2.3) [µM] | IC50 (Kir3.1/3.2) [µM] | inhibition at 30 µM (Kir3.1/3.4; observed at 30 µM, read-out: Percent maximal inhibition of Kir3.1/3.4) [%] |
| --- | --- | --- | --- | --- |
| O=C(NCC(O)(c1ccccc1)C(F)(F)F)c1ccc(OC(F)(F)F)cc1 (stereo not shown) [VU0543336, N-(3,3,3-trifluoro-2-hydroxy-2-phenylpropyl)-4-(trifluoromethoxy)benzamide] | > 30 | > 30 | > 30 | – |
| O=C(NCc1cc(-c2ccncc2)n(C2CCCC2)n1)Nc1cccs1 [VU0544086, 1-((1-cyclopentyl-5-(pyridin-4-yl)-1 H-pyrazol-3-yl)methyl)-3-(thiophen-2-yl)urea] | 16.2 | > 30 | > 30 | 92 |
| O=C1c2oc3ccccc3c(=O)c2C(c2cccc(Br)c2)N1CCO (stereo not shown) [VU0605768, 1-(3-bromophenyl)-2-(2-hydroxyethyl)-1,2-dihydrochromeno[2,3-c]pyrrole-3,9-dione] | > 30 | > 30 | > 30 | – |
| c1ccc2[nH]c(CSc3ncnc4c3oc3ccccc34)nc2c1 [VU0212387, 4-(((1 H-benzo[d]imidazol-2-yl)methyl)thio)benzofuro[3,2-d]pyrimidine] | > 30 | > 30 | > 30 | – |
